From US7033829B2, “Method to inhibit cell growth using oligonucleotides” (Trustees of Boston University, priority 2000, dated 2006)
Oligonucleotides are written 5' to 3', each unit as a sugar letter and its base; * is a phosphorothioate linkage, no mark a phosphodiester; rarer units and linkages stand in square brackets, end groups in braces. Plain capitals give the bases only. d = 2'-deoxy (DNA); {P} = phosphate

Assays:
human melanocytes = assay: Melanogenesis in human melanocytes; format: cell-based; conditions: after one week in culture
NBS fibroblasts = assay: FACS analysis of NBS fibroblasts; format: cell-based, human; conditions: 40 μM
Method: Fibroblasts were obtained from an NBS (Nijmegen breakage syndrome) patient, in which p95/Nbs1 was below the level of detection. Preconfluent cultures or normal (control) fibroblasts and NBS fibroblasts were treated with 40 μM of the oligonucleotides and collected after 48 hours for FACS analysis (FIGS. 34A–34H). The averages and standard deviations were calculated from triplicate cultures of each condition. FACS profiles from one representative experiment of three are shown.

[1] = tested on: GADD 45, ERCC 3 and SDI 1 mRNA; assay: Northern blot of GADD 45, ERCC 3 and SDI 1 in SCC12F cells; format: cell-based, human; conditions: 100 μM; as early as 24 hours, several days
Method: Paired cultures of SCC12F cells were maintained in a Dulbecco's modified Eagle's Medium-based keratinocyte growth medium (DMEM; GIBCO/BRL, Gaithersburg, Md.) supplemented with 10% fetal calf serum (Hyclone Labs, Logan, Utah) and epidermal growth factor as described (Hollander, M. C. et al., J. Biol. Chem. 268:328–336 (1992)). Pre-confluent cultures were given fresh medium supplemented with either 100 μM T2, or an equal volume of diluent. Cells were collected daily after additions, and processed for total RNA isolation using the Tri-Reagent extraction method (Molecular Research Center, Cincinnati, Ohio) following the protocol of the manufacturer. Ten micrograms of RNA from each sample was gel electrophoresed, transferred to a nylon filter and probed as described previously (Nada, A. et al., Exp. Cell Res. 211:90–98 (1994)). The cDNA for GADD 45 was generated by PCR using primers based on the human GADD 45 gene sequence (Mitsudomi, T. et al., Oncogene 7:171–180 (1992)). The cDNA for ERCC 3 was purchased from the American Type Culture Collection (ATCC, Rockville, Md.). The SDI 1 cDNA was a gift of Dr. J. Smith and has been described previously (Walworth, N.C. and Bernards, R., Science 271:353–356 (1996)).

[2] = tested on: UV-damaged CAT reporter plasmid in human fibroblasts; assay: Repair of UV-damaged CAT reporter plasmid in fibroblasts; format: cell-based; conditions: 100 μM for five days before transfection; plasmid 100 mJ/cm^2 UVB
Text: Expression of a UV-damaged reporter plasmid containing the bacterial chloramphenicol acetyltransferase (CAT) gene under the control of SV40 promoter and enhancer sequences was previously shown to detect decreased DNA repair capacity in human lymphocytes associated with aging and early-onset skin cancers. This reporter plasmid was used to measure the DNA repair capacity of normal neonatal human skin-derived fibroblasts and keratinocytes.
Keratinocytes from newborns were established as described (Stanulis-Praeger, B. M. and Gilchrest, B. A., J. Cell. Physiol. 139:116–124 (1989)) using a modification of the method of Rheinwald and Green (Gilchrest, B. A. et al., J. Invest. Dermatol. 101:666–672 (1993)). First-passage keratinocytes were maintained in a non-differentiating low Ca^2+ medium (K-Stim, Collaborative Biomedical Products, Bedford, Mass.). […] CAT enzyme activity was determined using the liquid scintillation counting protocol and components of the assay system kit. […] Protein concentration in the cell extracts was determined by the method of Bradford (Anal. Biochem. 72:248 […]). CAT activity was expressed as c.p.m./100 μg protein and is represented as percent activity of cells transfected with sham-irradiated, non-damaged, plasmid.

## pGAGTATGAG (DNA, 5' {P}, backbone not given here) [SEQ ID NO: 1]
Human melanocytes
  increase in melanogenesis: 51–62%

## pGTTAGGGTTAG (DNA {P}-dGdTdTdAdGdGdGdTdTdAdG) [SEQ ID NO: 5]
NBS fibroblasts
  proliferation compared to diluent-treated NBS cells: minimally affected
NBS fibroblasts; 48 hours, not statistically significant (p<0.08)
  increase in the number of S-phase cells compared to diluent: 8%

## thymidine dinucleotide [pTpT]
[1]
  mRNAs for GADD 45, ERCC 3 and SDI 1: up-regulated
[2]
  CAT activity relative to sham-irradiated transfected controls: more than 50%
